Measurements reported in patent US8574563B2 (Bristol-Myers Squibb Company, priority 2006, dated 2013).

tested on: HCV 1b-377-neo replicon cells; test: HCV replicon assay, HCV 1b-377-neo replicon cells (1b FRET); type: cell-based, Hepatitis C virus genotype 1b; settings: HCV 1b-377-neo replicon cells; HCV 1b genotype
In short: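 Compounds tested in HCV genotype 1b-377-neo replicon cells with a FRET read-out. Cells resistant to a reference NS5A inhibitor through a Y2065H NS5A mutation were run alongside wild-type cells.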

Row | Compound | EC50 range against HCV 1b (Table 2, Range)
1 | COC(=O)N[C@H](C(=O)N1CCC[C@H]1c1ncc(-c2ccc(-c3ccc(-c4cnc([C@@H]5CCCN5C(=O)[C@@H](NC(=O)OC)C(C)C)[nH]4)cc3C(N)=O)cc2)[nH]1)C(C)C [Example M118, methyl ((1S)-1-(((2S)-2-(5-(2′-carbamoyl-4′-(2-((2S)-1-((2S)-2-((methoxycarbonyl)amino)-3-methylbutanoyl)-2-pyrrolidinyl)-1H-imidazol-5-yl)-4-biphenylyl)-1H-imidazol-2-yl)-1-pyrrolidinyl)carbonyl)-2-methylpropyl)carbamate] | >A

same assay, conditions: HCV 1b-377-neo replicon cells; HCV 1b genotype; read-out: EC50 range against HCV 1b (Table 2, Range)

Row | Compound | EC50 [nM]
2 | CN(C)[C@@H](C(=O)N1CCC[C@H]1c1ncc(-c2ccc(-c3ccc(-c4cnc([C@@H]5CCCN5C(=O)c5ccc(N6CCOCC6)cc5)[nH]4)cc3)cc2)[nH]1)c1ccccc1 [Example 94-9, (1R)-N,N-dimethyl-2-((2S)-2-(5-(4′-(2-((2S)-1-(4-(4-morpholinyl)benzoyl)-2-pyrrolidinyl)-1H-imidazol-5-yl)-4-biphenylyl)-1H-imidazol-2-yl)-1-pyrrolidinyl)-2-oxo-1-phenylthanamine] | 0.001 to 0.999
3 | COC(=O)N[C@H](C(=O)N1CCC[C@H]1c1ncc(-c2ccc(-c3ccc(-c4cnc([C@@H]5CCCN5C(=O)N5CCN(C)CC5)[nH]4)cc3)cc2)[nH]1)C(C)C [Example M82, methyl ((1S)-2-methyl-1-(((2S)-2-(5-(4′-(2-((2S)-1-((4-methyl-1-piperazinyl)carbonyl)-2-pyrrolidinyl)-1H-imidazol-5-yl)-4-biphenylyl)-1H-imidazol-2-yl)-1-pyrrolidinyl)carbonyl)propyl) carbamate] | 1 to 99

same assay, conditions: Hepatitis C virus, HCV 1b-377-neo replicon cells; HCV 1b genotype; read-out: EC50 range against HCV 1b (Table 2, Range)

Row | Compound | EC50 [nM]
4 | COC(=O)N[C@@H](C)C(=O)N1CCC[C@H]1c1ncc(-c2ccc(-c3cc(F)c(-c4cnc([C@@H]5CCCN5C(=O)[C@H](C)NC(=O)OC)[nH]4)cc3F)cc2)[nH]1 [Example D52, methyl ((1S)-2-((2S)-2-(5-(2′5′-difluoro-4′-(2-((2S)-1-(N-(methoxycarbonyl)-L-alanyl)-2-pyrrolidinyl)-1H-imidazol-5-yl)-4-biphenylyl)-1H-imidazol-2-yl)-1-pyrrolidinyl)-1-methyl-2-oxoethyl)carbamate] | 0.001 to 0.999
5 | CCCN(CCC)[C@@H](C)C(=O)N1CCC[C@H]1c1ncc(-c2ccc(-c3ccc(-c4cnc([C@@H]5CCCN5C(=O)[C@H](C)NC(=O)OC)[nH]4)cc3)cc2)[nH]1 [Example M103, methyl ((1S)-2-((2S)-2-(5-(4′-(2-((2S)-1-(N,N-dipropyl-L-alanyl)-2-pyrrolidinyl)-1H-imidazol-5-yl)-4-biphenylyl)-1H-imidazol-2-yl)-1-pyrrolidinyl)-1-methyl-2-oxoethyl)carbamate] | 100 to 999
6 | CCN(CC)C(C)C(=O)N1CCC[C@H]1c1nc(C(F)(F)F)c(-c2ccc(-c3ncc(-c4cnc([C@@H]5CCCN5C(=O)[C@@H](C)N(CC)CC)[nH]4)cn3)cc2)[nH]1 (stereo in doubt) [Example J51, (2R)-1-((2S)-2-(5-(4-(5-(2-((2S)-1-((2R)-2-(diethylamino)propanoyl)-2-pyrrolidinyl)-1H-imidazol-5-yl)-2-pyrimidinyl)phenyl)-4-(trifluoromethyl)-1H-imidazol-2-yl)-1-pyrrolidinyl)-N,N-diethyl-1-oxo-2-propanamine] | 1 to 99
7 | CCN(CC)[C@@H](C(=O)N1CCC[C@H]1c1ncc(-c2ccc(-c3ccc(-c4cnc([C@@H]5CCCN5C(=O)C[C@H](Cc5cccs5)NC(=O)OC)[nH]4)cc3)cc2)[nH]1)c1ccccc1 [cj-54, methyl ((1R)-3-((2S)-2-(5-(4′-(2-((2S)-1-((2R)-2-(diethylamino)-2-phenylacetyl)-2-pyrrolidinyl)-1H-imidazol-5-yl)-4-biphenylyl)-1H-imidazol-2-yl)-1-pyrrolidinyl)-3-oxo-1-(2-thienylmethyl)propyl)carbamate] | 0.001 to 0.999
8 | COC(=O)N[C@H](C(=O)N1CCC[C@H]1c1ncc(-c2ccc(-c3ccc(-c4cnc([C@@H]5CCCN5C(=O)[C@H](NC(=O)OC)c5ccccc5)[nH]4)c(F)c3)cc2F)[nH]1)C(C)C [Example D60, methyl ((1S)-1-(((2S)-2-(5-(3,3′-difluoro-4′-(2-((2S)-1-((2R)-2-((methoxycarbonyl)amino)-2-phenylacetyl)-2-pyrrolidinyl)-1H-imidazol-5-yl)-4-biphenylyl)-1H-imidazol-2-yl)-1-pyrrolidinyl)carbonyl)-2-methylpropyl) carbamate] | 0.001 to 0.999
9 | COC(=O)N[C@@H](C(=O)N1CCC[C@H]1c1ncc(-c2ccc(-c3ccc(-c4cnc([C@@H]5CCCN5C(=O)C(c5noc6ccccc56)N(C)C)[nH]4)cc3)cc2)[nH]1)c1ccccc1 (stereo partly drawn) [Example 84-49, methyl ((1R)-2-((2S)-2-(5-(4′-(2-((2S)-1-(1,2-benzisoxazol-3-yl(dimethylamino)acetyl)-2-pyrrolidinyl)-1H-imidazol-5-yl)-4-biphenylyl)-1H-imidazol-2-yl)-1-pyrrolidinyl)-2-oxo-1-phenylethyl)carbamate] | 0.001 to 0.999
10 | O=C(N[C@@H](C(=O)N1CCC[C@H]1c1ncc(-c2ccc(-c3ccc(-c4cnc([C@@H]5CCCN5C(=O)[C@H]5CCCO5)[nH]4)cc3)cc2)[nH]1)c1ccccc1)[C@H]1CCCO1 [Example 119, (2R)-N-((1R)-2-oxo-1-phenyl-2-((2S)-2-(5-(4′-(2-((2S)-1-((2R)-tetrahydro-2-furanylcarbonyl)-2-pyrrolidinyl)-1H-imidazol-5-yl)-4-biphenylyl)-1H-imidazol-2-yl)-1-pyrrolidinyl)ethyl)tetrahydro-2-furancarboxamide] | 0.001 to 0.999
11 | COC(=O)N[C@H](C(=O)N1CCC[C@H]1c1ncc(-c2ccc(-c3ccc(-c4cnc([C@@H]5CCCN5C(=O)[C@@H](NC(=O)OC)[C@H](C)O)[nH]4)cc3)cc2)[nH]1)[C@H](C)O [Example M16, methyl ((1S,2S)-2-hydroxy-1-(((2S)-2-(5-(4′-(2-((2S)-1-((2S,3S)-3-hydroxy-2-((methoxycarbonyl)amino)butanoyl)-2-pyrrolidinyl)-1H-imidazol-5-yl)-4-biphenylyl)-1H-imidazol-2-yl)-1-pyrrolidinyl)carbonyl)propyl)carbamate] | 1000 to 10000
12 | O=C1N[C@H](C(=O)N2CCC[C@H]2c2ncc(-c3ccc(-c4ccc(-c5cnc([C@@H]6CCCN6C(=O)[C@@H]6CCOC(=O)N6)[nH]5)cc4)cc3)[nH]2)CCO1 [LS11, (4S,4′S)-4,4′-(4,4′-biphenyldiylbis(1H-imidazole-5,2-diyl(2S)-2,1-pyrrolidinediylcarbonyl))bis(1,3-oxazinan-2-one)] | 1000 to 10000
13 | CC(C)[C@H](NC(=O)OCCF)C(=O)N1CCC[C@H]1c1ncc(-c2ccc(-c3ccc(-c4cnc([C@@H]5CCCN5C(=O)[C@@H](NC(=O)OCCF)C(C)C)[nH]4)cc3)cc2)[nH]1 [OL-3, 2-fluoroethyl ((1S)-1-(((2S)-2-(4-(4′-(2-((2S)-1-((2S)-2-(((2-fluoroethoxy)carbonyl)amino)-3-methylbutanoyl)-2-pyrrolidinyl)-1H-imidazol-4-yl)-4-biphenylyl)-1H-imidazol-2-yl)-1-pyrrolidinyl)carbonyl)-2-methylpropyl)carbamate] | 1 to 99
14 | COC(=O)N[C@@H](C(=O)N1CCC[C@H]1c1ncc(-c2ccc(-c3ccc(-c4cnc([C@@H]5CCCN5C(=O)[C@@H](c5ccccc5)N5CCC(C)(O)CC5)[nH]4)cc3)cc2)[nH]1)c1ccccc1Cl [Example 107-42, methyl ((1R)-1-(2-chlorophenyl)-2-((2S)-2-(5-(4′-(2-((2S)-1-((2R)-2-(4-hydroxy-4-methyl-1-piperidinyl)-2-phenylacetyl)-2-pyrrolidinyl)-1H-imidazol-5-yl)-4-biphenylyl)-1H-imidazol-2-yl)-1-pyrrolidinyl)-2-oxoethyl) carbamate] | 0.001 to 0.999
15 | COC(=O)N[C@H](C(=O)N1CCC[C@H]1c1ncc(-c2ccc(-c3ccc(-c4cnc([C@@H]5CCCN5C(=O)[C@H](Nc5ncccn5)C(C)C)[nH]4)cc3)cc2)[nH]1)C(C)C [cj-11i, methyl ((1S)-2-methyl-1-(((2S)-2-(5-(4′-(2-((2S)-1-(N-2-pyrimidinyl-D-valyl)-2-pyrrolidinyl)-1H-imidazol-5-yl)-4-biphenylyl)-1H-imidazol-2-yl)-1-pyrrolidinyl)carbonyl)propyl)carbamate] | 0.001 to 0.999
16 | CCNC(=O)N[C@@H](C(=O)N1C[C@H](O)C[C@H]1c1ncc(-c2ccc(-c3ccc(-c4cnc([C@@H]5C[C@@H](O)CN5C(=O)[C@H](NC(=O)NCC)c5ccccc5)[nH]4)cc3)cc2)[nH]1)c1ccccc1 [Example 24-14, N′,N′′′-(4,4′-biphenyldiylbis(1H-imidazole-5,2-diyl((2S,4R)-4-hydroxy-2,1-pyrrolidinediyl)((1R)-2-oxo-1-phenyl-2,1-ethanediyl)))bis(1-ethylurea)] | 1 to 99
17 | COC(=O)N[C@@H](C(=O)N1CCC[C@H]1c1ncc(-c2ccc(-c3ccc(-c4cnc([C@@H]5CCCN5C(=O)[C@H](C)N)[nH]4)cc3)cc2)[nH]1)c1ccccc1 [Example 84, methyl ((1R)-2-((2S)-2-(5-(4′-(2-((2S)-1-L-alanyl-2-pyrrolidinyl)-1H-imidazol-5-yl)-4-biphenylyl)-1H-imidazol-2-yl)-1-pyrrolidinyl)-2-oxo-1-phenylethyl)carbamate] | 0.001 to 0.999
18 | COC(=O)N[C@@H](CC(C)C)C(=O)N1C[C@H](F)C[C@H]1c1ncc(-c2ccc(-c3ccc(-c4cnc([C@@H]5C[C@@H](F)CN5C(=O)[C@H](CC(C)C)NC(=O)OC)[nH]4)cc3)cc2)[nH]1 [JG-12, methyl ((1S)-1-(((2S,4R)-4-fluoro-2-(5-(4′-(2-((2S,4R)-4-fluoro-1-((2S)-2-((methoxycarbonyl)amino)-4-methylpentanoyl)-2-pyrrolidinyl)-1H-imidazol-5-yl)-4-biphenylyl)-1H-imidazol-2-yl)-1-pyrrolidinyl)carbonyl)-3-methylbutyl)carbamate] | 0.001 to 0.999
